Test results from ChEMBL document CHEMBL1155320, “Semi-rigid tripeptide agonists of melanocortin receptors” (Bioorg Med Chem Lett, 2009).
The source made the active and inactive calls. No cut-off for these calls is given here.

Legend:
[1] = molecular target: Melanocortin receptor 3 (Mus musculus) (UniProt P33033); assay: Agonistic activity against mouse MC3R at […]; type: functional
[2] = molecular target: Melanocyte-stimulating hormone receptor (Mus musculus, UniProt Q01727); assay: Agonistic activity against mouse MC1R; type: functional
Melanocortin receptor 4 = Melanocortin receptor 4 (Mus musculus, UniProt P56450); assay: Agonistic activity against mouse MC4R; type: functional
Melanocortin receptor 5 = Melanocortin receptor 5 (Mus musculus, UniProt P41149); assay: Agonistic activity against mouse MC5R; type: functional
[3] = molecular target: Melanocortin receptor 5 (Mus musculus) (UniProt P41149); assay: Agonistic activity against mouse MC5R at […]; type: functional
[4] = molecular target: Melanocortin receptor 4 (Mus musculus) (UniProt P56450); assay: Agonistic activity against mouse MC4R at […]; type: functional
Mus musculus [5] = species: Mus musculus; assay: Selectivity index, ratio of EC50 for mouse MCR5R to EC50 for mouse MC1R
Mus musculus [6] = species: Mus musculus; assay: Selectivity index, ratio of EC50 for mouse MCR4R to EC50 for mouse MC1R

Melanocortin receptor 3 (Mus musculus), sequence (P33033 whole entry): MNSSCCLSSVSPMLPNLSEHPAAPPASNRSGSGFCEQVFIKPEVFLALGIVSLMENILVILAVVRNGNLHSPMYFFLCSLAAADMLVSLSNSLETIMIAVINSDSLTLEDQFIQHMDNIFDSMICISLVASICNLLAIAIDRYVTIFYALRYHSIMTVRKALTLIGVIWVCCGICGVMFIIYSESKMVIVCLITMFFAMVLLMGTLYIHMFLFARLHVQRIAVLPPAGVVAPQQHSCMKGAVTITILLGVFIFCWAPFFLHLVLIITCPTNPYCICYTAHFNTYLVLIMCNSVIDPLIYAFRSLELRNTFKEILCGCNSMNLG
Melanocortin receptor 4 (Mus musculus), sequence (P56450 whole entry): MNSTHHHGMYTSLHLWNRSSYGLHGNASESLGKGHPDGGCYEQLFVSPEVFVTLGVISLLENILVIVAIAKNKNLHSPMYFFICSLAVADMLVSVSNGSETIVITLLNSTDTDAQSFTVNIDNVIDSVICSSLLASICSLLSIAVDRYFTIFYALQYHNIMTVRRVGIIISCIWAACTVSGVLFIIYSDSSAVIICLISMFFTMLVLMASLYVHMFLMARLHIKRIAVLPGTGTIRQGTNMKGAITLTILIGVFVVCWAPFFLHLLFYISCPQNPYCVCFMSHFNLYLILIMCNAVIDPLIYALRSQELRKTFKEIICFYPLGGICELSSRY
Melanocortin receptor 5 (Mus musculus), sequence (P41149 whole entry): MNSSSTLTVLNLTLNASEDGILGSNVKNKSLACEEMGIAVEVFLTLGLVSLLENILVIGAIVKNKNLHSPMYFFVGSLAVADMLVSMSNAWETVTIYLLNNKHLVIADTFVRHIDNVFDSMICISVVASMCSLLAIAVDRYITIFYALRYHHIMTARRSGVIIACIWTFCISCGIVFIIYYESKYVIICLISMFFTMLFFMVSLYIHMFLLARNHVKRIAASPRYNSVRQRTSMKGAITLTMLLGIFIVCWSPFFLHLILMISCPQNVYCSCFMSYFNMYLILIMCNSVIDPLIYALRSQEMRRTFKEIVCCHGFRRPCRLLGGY
Melanocyte-stimulating hormone receptor, sequence (Q01727 whole entry): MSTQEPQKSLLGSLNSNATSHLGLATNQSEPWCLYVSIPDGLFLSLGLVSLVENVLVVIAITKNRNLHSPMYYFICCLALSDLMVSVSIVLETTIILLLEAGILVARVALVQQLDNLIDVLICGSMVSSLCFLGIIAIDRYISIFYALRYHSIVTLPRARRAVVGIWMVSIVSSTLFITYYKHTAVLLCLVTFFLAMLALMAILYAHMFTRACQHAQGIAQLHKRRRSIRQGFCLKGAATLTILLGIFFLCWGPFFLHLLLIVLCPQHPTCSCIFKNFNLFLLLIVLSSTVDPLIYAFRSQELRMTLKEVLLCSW
Melanocortin receptor 4, sequence (P56450 whole entry): as the sequence (P56450 whole entry) above
Melanocortin receptor 5, sequence (P41149 whole entry): as the sequence (P41149 whole entry) above

COc1ccc(/C=C\C(=O)N[C@@H](Cc2cnc[nH]2)C(=O)N[C@H](Cc2ccccc2)C(=O)N[C@H](CCCNC(=N)N)C(N)=O)cc1
Activity [1]: inactive

N=C(N)NCCC[C@@H](NC(=O)[C@@H](Cc1ccccc1)NC(=O)[C@H](Cc1cnc[nH]1)NC(=O)/C=C/c1ccc(F)cc1F)C(N)=O
Activity [1]: inactive

N=C(N)NCCC[C@@H](NC(=O)[C@@H](Cc1ccccc1)NC(=O)[C@H](Cc1cnc[nH]1)NC(=O)/C=C/c1ccc2c(c1)OCO2)C(N)=O
Activity [1]: inactive

N=C(N)NCCCC(NC(=O)[C@@H](Cc1ccccc1)NC(=O)[C@H](Cc1cnc[nH]1)NC(=O)CCc1cccc2c1OCO2)C(N)=O (single isomer, unassigned)
EC50 [2]: 7.28 µM | EC50 (Melanocortin receptor 4): 25.5 µM | Activity [1]: inactive | EC50 (Melanocortin receptor 5): 23 µM

CC(=O)N/C(=C\c1ccccc1)C(=O)N[C@@H](Cc1cnc[nH]1)C(=O)N[C@H](Cc1ccccc1)C(=O)NC(CCCNC(=N)N)C(N)=O (single isomer, unassigned)
Activity [3]: inactive | Activity [1]: inactive

COc1ccc(/C=C/C(=O)N[C@@H](Cc2cnc[nH]2)C(=O)N[C@H](Cc2ccccc2)C(=O)NC(CCCNC(=N)N)C(N)=O)cc1 (single isomer, unassigned)
Activity [1]: inactive

COc1ccccc1/C=C/C(=O)N[C@@H](Cc1cnc[nH]1)C(=O)N[C@H](Cc1ccccc1)C(=O)NC(CCCNC(=N)N)C(N)=O (single isomer, unassigned)
Activity [1]: inactive

N#C/C(=C\c1ccc(O)cc1)C(=O)N[C@@H](Cc1cnc[nH]1)C(=O)N[C@H](Cc1ccccc1)C(=O)NC(CCCNC(=N)N)C(N)=O (single isomer, unassigned)
Activity [1]: inactive

N=C(N)NCCCC(NC(=O)[C@@H](Cc1ccccc1)NC(=O)[C@H](Cc1cnc[nH]1)NC(=O)/C(F)=C/c1ccccc1)C(N)=O (single isomer, unassigned)
Activity [1]: inactive

N=C(N)NCCCC(NC(=O)[C@@H](Cc1ccccc1)NC(=O)[C@H](Cc1cnc[nH]1)NC(=O)/C=C/c1ccc([N+](=O)[O-])cc1)C(N)=O (single isomer, unassigned)
Activity [4]: inactive | Activity [1]: inactive

N=C(N)NCCCC(NC(=O)[C@@H](Cc1ccccc1)NC(=O)[C@H](Cc1cnc[nH]1)NC(=O)/C=C/c1cccc(O)c1)C(N)=O (single isomer, unassigned)
Activity [1]: inactive

N=C(N)NCCCC(NC(=O)[C@@H](Cc1ccccc1)NC(=O)[C@H](Cc1cnc[nH]1)NC(=O)/C=C/c1ccccc1)C(N)=O (single isomer, unassigned)
Selectivity Index (Mus musculus [5]): 25 | Activity [1]: inactive | Selectivity Index (Mus musculus [6]): 44

N=C(N)NCCCC(NC(=O)[C@@H](Cc1ccccc1)NC(=O)[C@H](Cc1cnc[nH]1)NC(=O)CCC(=O)c1ccc(F)cc1)C(N)=O (single isomer, unassigned)
Activity [1]: inactive

N=C(N)NCCCC(NC(=O)[C@@H](Cc1ccccc1)NC(=O)[C@H](Cc1cnc[nH]1)NC(=O)CCC(=O)c1ccccc1)C(N)=O (single isomer, unassigned)
Activity [1]: inactive

N=C(N)NCCCC(NC(=O)[C@@H](Cc1ccccc1)NC(=O)[C@H](Cc1cnc[nH]1)NC(=O)CCCCc1ccc2c(c1)OCO2)C(N)=O (single isomer, unassigned)
Activity [4]: inactive | Activity [3]: inactive

N=C(N)NCCCC(NC(=O)[C@@H](Cc1ccccc1)NC(=O)[C@H](Cc1cnc[nH]1)NC(=O)CCc1c[nH]cn1)C(N)=O (single isomer, unassigned)
Activity [1]: inactive

N=C(N)NCCCC(NC(=O)[C@@H](Cc1ccccc1)NC(=O)[C@H](Cc1cnc[nH]1)NC(=O)CCc1ccc(O)cc1)C(N)=O (single isomer, unassigned)
Activity [4]: inactive | Activity [1]: inactive

N=C(N)NCCCC(NC(=O)[C@@H](Cc1ccccc1)NC(=O)[C@H](Cc1cnc[nH]1)NC(=O)CCc1cccc(O)c1)C(N)=O (single isomer, unassigned)
Activity [4]: inactive | Activity [1]: inactive

N=C(N)NCCCC(NC(=O)[C@@H](Cc1ccccc1)NC(=O)[C@H](Cc1cnc[nH]1)NC(=O)CCc1cccnc1)C(N)=O (single isomer, unassigned)
Activity [4]: inactive | Activity [1]: inactive

N=C(N)NCCCC(NC(=O)[C@@H](Cc1ccccc1)NC(=O)[C@H](Cc1cnc[nH]1)NC(=O)c1ccc2c(c1)OCO2)C(N)=O (single isomer, unassigned)
Activity [1]: inactive

N=C(N)NCCCC(NC(=O)[C@@H](Cc1ccccc1)NC(=O)[C@H](Cc1cnc[nH]1)NC(=O)c1ccc2cc(O)ccc2c1)C(N)=O (single isomer, unassigned)
Activity [4]: inactive | Activity [1]: inactive
